Assay results published in ChEMBL document CHEMBL3507680, “University of Dundee, Gates Library screen for HepG2 cell viability”.

Assay: Human HepG2 cell viability assay in 384 well format
Assay type: toxicity, cell-based
Parameters: dose 125 nL, time 70.5 hour; concentration not given beside the values
Conditions: HepG2 cells, read-out: Inhibition

| SMILES | cytotoxicity at 70.5 h [%] |
| --- | --- |
| O=C(Nc1ccc(Cl)cc1C(=O)NCCN1CCOCC1)c1ccco1 | -0.882 |
| Cc1nnc(N2C[C@H](OCCCn3cccn3)[C@H]3OCCC[C@H]32)s1 | -2.53 |
| Cc1ccc(N2CCCc3sc(C(=O)NCCO)nc32)nn1 | -1.7 |
| COCC(=O)N1CCC(c2nc3ccc(N4CCOCC4)cn3n2)CC1 | -2.79 |
| CC(C)N(C)Cc1n[nH]c2c1CCN(C(=O)c1cc[nH]n1)C2 | 21.5 |
| CCC(CC)C(=O)NCc1cnn(CC)c1 | -13.4 |
| O=C(c1ccc(F)c(F)c1)N1CCN2CCCC2C1 (stereo not given) | 3.92 |
| Cc1cc(C(F)(F)F)nn1CCCNC(=O)C1CCC1 | -4.63 |
| CCCN1CCN(C(=O)Cn2nc(C(F)(F)F)c(Br)c2C2CC2)CC1 | -6.28 |
| CCN1CCN(C(=O)Cn2nc(C(F)(F)F)c(Br)c2C2CC2)CC1 | -7.97 |
| O=C(CCn1cc(Cl)cn1)Nc1ccc2c(c1)OCCO2 | -8.19 |
| Cc1nn(Cc2ccc(C(=O)NC3CCS(=O)(=O)C3)cc2)c(C)c1Br (stereo not given) | 3.3 |
| CC1CCCN(C(=O)c2ccn(COc3ccccc3)n2)C1 (stereo not given) | 12.9 |
| CC1CCN(C(=O)c2ccn(COc3ccccc3)n2)CC1 | -4.91 |
| Cc1ccccc1OCn1ccc(C(=O)NCCN2CCOCC2)n1 | -12.2 |
| CC1CCCCN1C(=O)c1ccn(COc2ccc(F)cc2)n1 (stereo not given) | -9.66 |
| O=C(NCCCN1CCOCC1)c1ccn(COc2ccc(Br)cc2)n1 | 12.3 |
| Cc1ccc(NC(=O)C(C)n2ccc(C(F)(F)F)n2)nc1 (stereo not given) | 1.64 |
| Cc1cnc(NC(=O)C(C)n2ccc(C(F)(F)F)n2)s1 (stereo not given) | -5.09 |
| CC(Oc1ccc2c(c1)OCO2)C(=O)Nc1ccon1 (stereo not given) | -6.17 |
| COc1ccccc1N1CCN(C(=O)Cn2nc(C)c(Cl)c2C)CC1 | 11.3 |
| Cc1cc(N2CCC(Cc3ccccc3)CC2)ncn1 | -11.5 |
| CCn1cc(Cl)c(C(=O)NCCCN(C)C)n1 | -7.78 |

| SMILES | cytotoxicity at 70.5 h [%] |
| --- | --- |
| CCOCCCNC(=O)C(C)n1cc(Br)cn1 (stereo not given) | 1.42 |
| CCN1CCN(C(=O)C(C)n2cc(Br)cn2)CC1 (stereo not given) | -1.55 |
| CC(C(=O)N1CCN(c2ccccc2)CC1)n1cc(Br)cn1 (stereo not given) | -2.65 |
| O=C(COc1ccc2c(c1)CCC2)NCc1ccco1 | 23.9 |
| CSc1[nH]nc(NC(=O)c2cccs2)c1C#N | -10.4 |
| CCN(Cc1nonc1C)C(=O)c1cc(C(F)(F)F)nn1C | -7.63 |
| CC(Cn1cc(Br)cn1)C(=O)Nc1ccc(Br)cn1 (stereo not given) | 3.47 |
| CC(Cn1cc(Br)cn1)C(=O)Nc1ccncc1 (stereo not given) | 6.88 |
| Cc1cc(C(F)(F)F)nn1C(C)C(=O)Nc1ccc(Cl)cn1 (stereo not given) | -6.74 |
| COc1ccc(C(C)NC(=O)c2nn(C)c(C)c2Br)cc1 (stereo not given) | -2.4 |
| CCn1cc(Br)c(C(=O)NCc2ccc(F)cc2)n1 | 4.64 |
| CCCn1nccc1C(=O)Nc1nc(C)c(C)s1 | 11.9 |
| CCc1ccccc1NC(=O)CCc1cnn(C)c1 | -11.3 |
| CCn1ccc(-c2nnc(SCC(=O)Nc3ccc(C)cc3)n2CC)n1 | -13.9 |
| Cc1cc(C)n(C2=NC(NCCC(C)C)c3c(sc4c3CCCC4)N2)n1 (stereo not given) | 1.07 |
| COCCC(=O)Nc1cnn(COc2ccc(F)cc2Cl)c1 | 27.4 |
| O=C(COc1ccc2c(c1)OCO2)NCc1ccco1 | -5.95 |
| CCCNCc1ncc(C)c(OC)c1C | -6.98 |
| Cc1cc(=O)n2c3c(cc(S(=O)(=O)NC4CC4)cc13)CCC2 | 31.9 |
| CCCN(C(=O)CS(=O)(=O)c1ccccc1)c1cccc(C)c1 | -5.44 |
| Cn1cc(Br)c(C(=O)NCCn2cc(Br)cn2)n1 | 8.47 |
| COc1ccc(-c2cc(C(=O)N3N=C(C)CC3(O)C(F)(F)F)[nH]n2)cc1 (stereo not given) | 12.4 |
| COc1cccc(-c2cc(C(=O)N3N=C(C)CC3(O)C(F)(F)F)[nH]n2)c1 (stereo not given) | -16.8 |

| SMILES | cytotoxicity at 70.5 h [%] |
| --- | --- |
| O=C(c1ccnn1COc1ccc(Cl)cc1)N1CCOCC1 | -6.03 |
| CCn1cc(NC(=O)C(C)n2ncc(Cl)c2C)c(C(=O)NCC(C)C)n1 (stereo not given) | -3.04 |
| Cc1c(Br)cnn1CCC(=O)N(C)Cc1c(Cl)cnn1C | 30.7 |
| CS(=O)(=O)Nc1ccn(Cc2ccc(F)cc2Cl)n1 | -12.3 |
| CCS(=O)(=O)Nc1ccn(Cc2cccc(F)c2)n1 | -11.5 |
| Cc1cc(C(F)(F)F)nn1CCCNC(=O)C1CCN(S(C)(=O)=O)CC1 | -10.7 |
| CCn1cc(S(=O)(=O)N2CCN(C(=O)c3cc(Br)cs3)CC2)c(C)n1 | 21.7 |
| CCn1ncc(-c2cc(C(F)F)nc3sc(C(N)=O)c(N)c23)c1C | 9.78 |
| Cc1c(Br)c(C(F)(F)F)nn1C(C)C(=O)O (stereo not given) | -11.2 |
| Cn1nc(C(=O)N2CCOCC2)cc1C(=O)Nc1ccc(Cl)cc1Cl | -2.86 |
| COc1cc(NC(=O)NCC2CCCO2)cc(OC)c1OC (stereo not given) | -5.38 |
| Cc1cccc(N2CCCN=C2NC(=O)c2cccc(Cl)c2)c1 | -9.98 |
| CCOc1ccc(N2CCCN=C2NC(=O)c2cccc(C)c2)cc1 | -6.22 |
| CN1CC(Oc2ccc(Cl)cc2)=NC(SCC(=O)Nc2ccccc2)=N1 | 7.43 |
| CN1CC(Oc2ccc(Cl)cc2)=NC(SCC(=O)c2ccccc2)=N1 | 14.8 |
| CC(C)c1cc2c(s1)NC(c1ccccn1)NC2=O (stereo not given) | -3.28 |
| OC1=C2C(=Nc3n[nH]c(O)c3C2c2ccco2)CCC1 (stereo not given) | -9.2 |
| CCOc1ccc(C2C3=C(O)OCC3=Nc3nc(SC)nc(N)c32)cc1 (stereo not given) | 9.83 |
| Cc1nn(C)c2c(N3CCN(C(=O)C4CCCCC4)CC3)ncnc12 | 14.6 |
| Cc1nn(C)c2c(N3CCN(C(=O)C4CCCO4)CC3)ncnc12 (stereo not given) | 1.72 |
| CC(C)N1CCC(c2n[nH]cc2S(C)(=O)=O)CC1 | -10.2 |
| CNC(=O)C1(C)CN(Cc2cn(C)c3ccc(F)cc23)CCO1 (stereo not given) | -9.03 |
| Cc1ncsc1CN1CCOC(C)(C(N)=O)C1 (stereo not given) | -1.13 |

| SMILES | cytotoxicity at 70.5 h [%] |
| --- | --- |
| CC(=O)N1CCC(c2ccnc(Nc3cc(C(F)(F)F)ccn3)n2)C1 (stereo not given) | 19.8 |
| O=C(NCCc1ccccc1)C1CCN(C(=O)Cn2cncn2)C1 (stereo not given) | -10.2 |
| CN(C)Cc1cc(C2CCCN(S(=O)(=O)c3cccc(Cl)c3)C2)nn1C (stereo not given) | -14.6 |
| O[C@H]1CN(Cc2c[nH]nc2-c2ccccc2)CC[C@@]12CCCO2 | 15.7 |
| Cc1cc(Nc2cnccn2)nc(C2CCCN(CCO)C2)n1 (stereo not given) | -10.3 |
| Nc1nccc(C2CCN(CC3CC3)C2)n1 (stereo not given) | 17.6 |
| Cc1cc(-c2c[nH]nc2C2CCCCN2C(=O)c2ccccc2)on1 (stereo not given) | -9.53 |
| CCc1n[nH]c(C(=O)NCCn2nccc2C)c1C | -5.81 |
| O=C1CCC[C@]2(CN(S(=O)(=O)N3CCOCC3)C[C@H]2c2cccnc2)N1 | -4.54 |
| Nc1nccc(C2CCCN(CC3CC3)C2)n1 (stereo not given) | -4.18 |
| CCn1cc(-c2nccnc2C2CCCN(C(C)=O)C2)cn1 (stereo not given) | -4.58 |
| Cc1cc(C)n(C2CCN(Cc3nc4ccccc4n3C)CC2)n1 | 1.81 |
| C[C@@H]1CN(c2nc(O)cc(Cc3ccccc3F)n2)C[C@H](C)O1 | 19.5 |
| O=C(NCc1ccccn1)c1cncc(C2CCCN2)n1 (stereo not given) | 22.2 |
| CCn1ccc(-c2cc(NCCCOc3cccc(C)c3)nc(C)n2)n1 | -6.25 |
| CCCn1cc(C(=O)N2CCCC2(C)c2nc(C)cc(N)n2)cn1 (stereo not given) | -1.03 |
| c1ccc(N2CCN(Cc3cnc(C4CCCCO4)nc3)CC2)nc1 (stereo not given) | -4.5 |
| CCc1n[nH]c(C(=O)NCCn2ccc(C)n2)c1C | 17.6 |
| CNc1ncc(CN(C)C2CCN(C(C)C)CC2)cn1 | -3.89 |
| CCCC(=O)N1CCCC(c2ccccn2)C1 (stereo not given) | -1.3 |
| Cn1cc(CN2CCOC(c3nccnc3-c3cccc(F)c3)C2)cn1 (stereo not given) | 21.8 |
| Nc1nccc(C2CCCN2CCc2ccccc2)n1 (stereo not given) | -1.57 |
| CCN(CC)S(=O)(=O)N1CC[C@H](c2ccccc2)[C@@H]2[C@H]1CCCCN2C | -0.108 |

| SMILES | cytotoxicity at 70.5 h [%] |
| --- | --- |
| COCC(=O)N1CCN(C)C(=O)C(Cc2ccc(-c3cccs3)cc2)C1 (stereo not given) | -1.25 |
| CC(C)C(=O)N1CCC(C)(c2cc[nH]n2)CC1 | -0.608 |
| Cc1nc2cc(C3CCCCN3C(=O)C3CC3)nn2c(O)c1C (stereo not given) | -2.34 |
| Cc1ncsc1C(=O)N1CCCCC1c1cc2nc(C)c(C)c(O)n2n1 (stereo not given) | -4.23 |
| CN(C)CCN(C)C(=O)Cn1cccc2cc(-c3ccc(F)cc3)nc1-2 | 4.32 |
| CC1Cc2ccccc2N1C(=O)Cn1nc(-c2cccs2)ccc1=O (stereo not given) | -8.13 |
| Cc1cccc(CNC(Cc2ccsc2)c2nccs2)n1 (stereo not given) | 0.0464 |
| CC(=O)N1Cc2ccccc2OC2(CCN(C(=O)C3CCOC3)CC2)C1 (stereo not given) | -1.13 |
| Cc1cnc(-c2nc(O)c3c(n2)CN(C(=O)C2CC2)CC3)cn1 | -4.33 |
| Cc1cnc(-c2nc(O)c3c(n2)CN(C(=O)C2CCCO2)CC3)cn1 (stereo not given) | -1.18 |
| COc1ccc(F)cc1-c1ccccc1CC1(C(=O)O)CCOCC1 | 27.6 |
| Nc1cc(-c2cccs2)nn(CC(=O)N2CCc3ccccc32)c1=O | -2.52 |
| Clc1cccc(Cl)c1CN(CCCN1CCOCC1)Cc1cccnc1 | -11.4 |
| O=C(Cc1cccc(O)c1)N1CCCC(O)(CN2CCOCC2)CC1 (stereo not given) | 0.936 |
| Cc1ccc(N(C)[C@@H]2CC[C@@H]3CN(C(=O)Cc4cccs4)C[C@@H]32)nn1 | -5.34 |
| Cn1cc(CN2CCCC(c3nccnc3-c3cccc(F)c3)C2)cn1 (stereo not given) | 16.1 |
| NC(=O)C1CNCCN1C(=O)COc1ccccc1 (stereo not given) | -7.46 |
| COc1cc2cc(C)c(SCCN3CCCCC3)nc2cc1OC | 4.15 |
| CC(C)Oc1cccc(CNC(Cc2ccsc2)c2nccs2)c1 (stereo not given) | -2.9 |
| Cc1ccc(C2(CN3CCN(Cc4cnc(C)n4C)CC3)CC2)cc1 | 32.9 |
| Cc1cc(N(C)C)nc(C2CCNC2)n1 (stereo not given) | 45.3 |
| Cc1nnc(N2C[C@H](OCc3ccncc3)[C@H]3OCCC[C@H]32)s1 | -4.47 |
| CCc1ncc(CN(C)C2CCN(C(C)C)CC2)cn1 | 13.4 |
